Where a name gives a salt, the structure may show the parent alone.
Columns and labels:
BPH patients = details: cited from earlier work; for improvements in urinary flow rates and subjective symptom scores: longer term studies; for Clinical efficacy in BPH: BPH patients
α1b (Hamster) = biological target: T1, α1b (Hamster) (Mesocricetus auratus, UniProt P18841); experiment: Radioligand binding, displacement of [3H]-prazosin from cloned α1b (hamster) expressed in LTK cells; details: [3H]-prazosin 0.2 nM; cloned hamster α1b in LTK cell membranes; 25° C., 50 minutes
T1 sequence (P18841 1-515): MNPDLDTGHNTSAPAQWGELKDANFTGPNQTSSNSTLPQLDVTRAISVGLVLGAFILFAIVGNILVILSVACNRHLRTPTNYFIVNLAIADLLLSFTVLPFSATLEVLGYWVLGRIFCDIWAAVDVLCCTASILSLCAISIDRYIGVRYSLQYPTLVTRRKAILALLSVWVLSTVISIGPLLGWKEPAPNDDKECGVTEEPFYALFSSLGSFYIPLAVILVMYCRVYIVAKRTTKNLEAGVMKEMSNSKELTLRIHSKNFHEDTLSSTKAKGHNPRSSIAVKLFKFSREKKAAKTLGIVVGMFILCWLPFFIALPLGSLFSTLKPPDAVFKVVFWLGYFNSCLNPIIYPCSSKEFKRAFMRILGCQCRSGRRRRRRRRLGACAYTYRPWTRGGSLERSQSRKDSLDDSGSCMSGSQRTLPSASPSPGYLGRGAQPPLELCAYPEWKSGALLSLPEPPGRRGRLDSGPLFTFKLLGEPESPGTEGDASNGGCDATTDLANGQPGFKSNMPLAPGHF

α1a (Rat) = biological target: T2, α1a (Rat) (Rattus norvegicus, UniProt P43140); experiment: Radioligand binding, displacement of [3H]-prazosin from cloned α1a (rat) expressed in LTK cells; details: [3H]-prazosin 0.2 nM; cloned rat α1a in LTK cell membranes; 25° C., 50 minutes
T2 sequence (P43140 1-466): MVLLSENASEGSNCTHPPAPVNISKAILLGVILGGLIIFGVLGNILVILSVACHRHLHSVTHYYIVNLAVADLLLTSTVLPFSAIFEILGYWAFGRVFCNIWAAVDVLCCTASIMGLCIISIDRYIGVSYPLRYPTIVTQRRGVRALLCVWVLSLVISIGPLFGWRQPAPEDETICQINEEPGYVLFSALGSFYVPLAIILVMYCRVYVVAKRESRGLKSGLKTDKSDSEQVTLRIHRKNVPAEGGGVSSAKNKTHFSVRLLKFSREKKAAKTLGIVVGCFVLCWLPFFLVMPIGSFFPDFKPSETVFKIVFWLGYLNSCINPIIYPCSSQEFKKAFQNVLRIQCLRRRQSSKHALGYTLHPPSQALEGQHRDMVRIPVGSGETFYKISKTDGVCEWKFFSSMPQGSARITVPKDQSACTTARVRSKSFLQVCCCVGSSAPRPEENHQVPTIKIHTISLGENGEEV

α1a (Bovine) = biological target: T3, α1a (Bovine) (Bos taurus, UniProt P18130); experiment: Radioligand binding, displacement of [3H]-prazosin from cloned α1a (bovine) expressed in LTK cells; details: [3H]-prazosin 0.2 nM; cloned bovine α1a in LTK cell membranes; 25° C., 50 minutes
T3 sequence (P18130 1-466): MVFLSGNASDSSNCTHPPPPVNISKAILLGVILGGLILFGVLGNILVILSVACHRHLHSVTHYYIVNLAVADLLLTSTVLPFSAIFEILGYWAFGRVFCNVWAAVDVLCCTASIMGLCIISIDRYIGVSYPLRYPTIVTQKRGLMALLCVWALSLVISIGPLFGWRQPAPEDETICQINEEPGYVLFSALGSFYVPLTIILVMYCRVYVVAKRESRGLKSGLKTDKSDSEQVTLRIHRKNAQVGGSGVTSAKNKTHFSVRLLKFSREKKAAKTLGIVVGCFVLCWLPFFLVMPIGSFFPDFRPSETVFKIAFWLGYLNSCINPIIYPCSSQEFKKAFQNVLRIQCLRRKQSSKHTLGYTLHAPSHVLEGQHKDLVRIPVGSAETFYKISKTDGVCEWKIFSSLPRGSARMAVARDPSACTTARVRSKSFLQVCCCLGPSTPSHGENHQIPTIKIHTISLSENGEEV

α1d (rat) = biological target: T4, α1d (rat) (Rattus norvegicus, UniProt P23944); experiment: Radioligand binding, displacement of [3H]-prazosin from cloned α1d (rat) expressed in LTK cells; details: [3H]-prazosin 0.2 nM; cloned rat α1d in LTK cell membranes; 25° C., 50 minutes
T4 sequence (P23944 1-561): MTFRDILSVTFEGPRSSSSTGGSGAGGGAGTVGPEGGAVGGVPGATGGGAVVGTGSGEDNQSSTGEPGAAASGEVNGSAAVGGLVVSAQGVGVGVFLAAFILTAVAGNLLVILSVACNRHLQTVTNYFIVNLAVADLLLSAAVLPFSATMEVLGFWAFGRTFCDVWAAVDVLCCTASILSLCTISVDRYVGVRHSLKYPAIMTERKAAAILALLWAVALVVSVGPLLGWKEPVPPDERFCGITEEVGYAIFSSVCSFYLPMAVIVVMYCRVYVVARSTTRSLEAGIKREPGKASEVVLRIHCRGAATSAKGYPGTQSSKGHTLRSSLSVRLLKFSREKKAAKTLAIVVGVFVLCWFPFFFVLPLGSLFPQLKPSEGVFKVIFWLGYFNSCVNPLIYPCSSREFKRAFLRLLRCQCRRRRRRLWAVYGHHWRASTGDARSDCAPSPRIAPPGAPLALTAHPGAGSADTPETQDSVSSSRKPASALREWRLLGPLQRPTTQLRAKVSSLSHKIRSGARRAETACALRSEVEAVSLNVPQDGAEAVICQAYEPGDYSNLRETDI

In the case of `O=C(NC1CCN(CCc2c[nH]c3ccccc23)CC1)c1ccccc1` [indoramin], the “improvements in urinary flow rates and subjective symptom scores” value (shortened to “improvements”) (BPH patients) is given as “significant improvements in urinary flow rates and subjective symptom scores”.

With `COc1cccc([C@H]2CCN(CCCCn3c(=O)[nH]c4c(sc5cccnc54)c3=O)C2)c1` [Example 22, (R)-3-[4-[3-(3-methoxyphenyl)-1-pyrrolidinyl]butyl]pyrido[2',3':4,5]thieno[3,2-d]pyrimidine-2,4(1H,3H)-dione, Dihydrochloride] the Ki (α1b (Hamster)) was 18.4 nM, the Ki (α1a (Rat)) was 5.11 nM and the Ki (α1a (Bovine)) was 1.52 nM. It also gave a Ki (α1d (rat)) of 11.5 nM.

`COc1cccc([C@H]2CCN(CCn3c(=O)[nH]c4c(sc5ncccc54)c3=O)C2)c1` [Example 23, (R)-3-[2-[3-(3-methoxyphenyl)-1-pyrrolidinyl]ethyl]pyrido[3',2':4,5]thieno[3,2-d]pyrimidine-2,4(1H,3H)-dione, Dihydrochloride] showed a Ki (α1b (Hamster)) of 331 nM, a Ki (α1a (Rat)) of 134 nM and a Ki (α1a (Bovine)) of 27 nM. For the same compound, the Ki (α1d (rat)) was 86.4 nM.

Work on `COc1ccccc1[C@@H]1CCN(CCCn2c(=O)[nH]c3c(sc4cccnc43)c2=O)C1` [Example 28, (S)-3-[3-[3-(2-methoxyphenyl)-1-pyrrolidinyl]propyl]pyrido[2',3':4,5]thieno[3,2-d]pyrimidine-2,4(1H,3H)-dione, Dihydrochloride] yielded a Ki (α1b (Hamster)) of 88.6 nM, a Ki (α1a (Rat)) of 25.8 nM and a Ki (α1a (Bovine)) of 10.3 nM. The Ki (α1d (rat)) was 27.8 nM.

`COc1ccccc1[C@H]1CCN(CCCCn2c(=O)[nH]c3c(sc4ncc(-c5ccccc5)nc43)c2=O)C1` [Example 16, (R)-8-phenyl-3-[4-[3-(2-methoxyphenyl)-1-pyrrolidinyl]butyl]pyrazino[2',3':4,5]thieno[3,2-d]pyrimidine-2,4(1H,3H)-dione, Dihydrochloride] showed a Ki (α1b (Hamster)) of 11.8 nM, a Ki (α1a (Rat)) of 1.61 nM and a Ki (α1a (Bovine)) of 0.09 nM. For the same compound, the Ki (α1d (rat)) was 0.64 nM.

In the case of `COc1ccccc1[C@@H]1CCN(CCCCn2c(=O)[nH]c3c(sc4cccnc43)c2=O)C1` [Example 29, (S)-3-[4-[3-(2-methoxyphenyl)-1-pyrrolidinyl]butyl]pyrido[2',3':4,5]thieno[3,2-d]pyrimidine-2,4(1H,3H)-dione, Dihydrochloride], the Ki (α1b (Hamster)) is reported as 4.02 nM, the Ki (α1a (Rat)) is reported as 1.98 nM and the Ki (α1a (Bovine)) is reported as 0.69 nM. It also gave a Ki (α1d (rat)) of 2.02 nM.

In the case of `COc1cccc([C@@H]2CCN(CCn3c(=O)[nH]c4c(sc5ccccc54)c3=O)C2)c1` [Example 26, (S)-3-[2-[3-(3-methoxyphenyl)-1-pyrrolidinyl]ethyl]-[1]benzothieno[3,2-d]pyrimidine-2,4(1H,3H)-dione, Monohydrochloride], the Ki (α1b (Hamster)) is reported as 10.7 nM, the Ki (α1a (Rat)) is reported as 6.79 nM and the Ki (α1a (Bovine)) is reported as 1.24 nM. For the same compound, the Ki (α1d (rat)) was 3.04 nM.

For `COc1ccccc1[C@H]1CCN(CCn2c(=O)[nH]c3c(sc4ccccc43)c2=O)C1` [Example 1, (R)-3-[2-[3-(2-Methoxyphenyl)-1-pyrrolidinyl]ethyl]-[1]benzothieno[3,2-d]pyrimidine-2,4(1H,3H)-dione, Monohydrochloride], the Ki (α1b (Hamster)) was 0.94 nM, the Ki (α1a (Rat)) was 1.8 nM and the Ki (α1a (Bovine)) was 0.13 nM. For the same compound, the Ki (α1d (rat)) was 0.82 nM.

In the case of `COc1ccccc1[C@H]1CCN(CCCCN2C(=O)COc3ccccc32)C1` [Example 18, (R)-4-[4-[3-(2-methoxyphenyl)-1-pyrrolidinyl]butyl]-2H-1,4-benzoxazin-3(4H)-one, Monohydrochloride], the Ki (α1b (Hamster)) is reported as 1.02 nM, the Ki (α1a (Rat)) is reported as 0.46 nM and the Ki (α1a (Bovine)) is reported as 0.21 nM. It also gave a Ki (α1d (rat)) of 0.66 nM.

In the case of `COc1cc2nc(N3CCN(C(=O)c4ccco4)CC3)nc(N)c2cc1OC` [prazosin], the “improvements” value (BPH patients) is given as “significant improvements in urinary flow rates and subjective symptom scores”.

In the case of `COc1cc2nc(N3CCN(C(=O)C4COc5ccccc5O4)CC3)nc(N)c2cc1OC` (stereo not drawn) [doxazosin], the “Clinical efficacy in BPH” value (BPH patients) is given as “Clinical efficacy of α1 antagonists in BPH has been demonstrated” and the “improvements” value (BPH patients) is given as “significant improvements in urinary flow rates and subjective symptom scores”.

For `COc1cc2nc(N3CCN(C(=O)C4CCCO4)CC3)nc(N)c2cc1OC` (stereo not drawn) [terazosin], the “Clinical efficacy in BPH” value (BPH patients) is listed as “Clinical efficacy of α1 antagonists in BPH has been demonstrated” and the “improvements” value (BPH patients) is listed as “significant improvements in urinary flow rates and subjective symptom scores”.

With `COc1ccccc1[C@H]1CCN(CCCn2c(=O)[nH]c3c(sc4cccnc43)c2=O)C1` [Example 5, (R)-3-[3-[3-(2-Methoxyphenyl)-1-pyrrolidinyl]propyl]pyrido[2',3':4,5]thieno[3,2-d]pyrimidine-2,4(1H,3H)-dione Dihydrochloride] the Ki (α1b (Hamster)) was 9.68 nM, the Ki (α1a (Rat)) was 2.05 nM and the Ki (α1a (Bovine)) was 1.25 nM. It also gave a Ki (α1d (rat)) of 2.25 nM.

Compound `COc1ccccc1[C@H]1CCN(CCCCN2C(=O)c3ccccc3S2(=O)=O)C1` [Example 17, (R)-2-[4-[3-(2-methoxyphenyl)-1-pyrrolidinyl]butyl]-1,2-benzoisothiazol-3(2H)-one, 1,1-dioxide Monohydrochloride] has a Ki (α1b (Hamster)) of 1.1 nM, a Ki (α1a (Rat)) of 0.13 nM and a Ki (α1a (Bovine)) of 0.03 nM. For the same compound, the Ki (α1d (rat)) was 0.22 nM.

For `COc1cccc([C@H]2CCN(CCCn3c(=O)[nH]c4c(sc5cccnc54)c3=O)C2)c1` [Example 21, (R)-3-[3-[3-(3-methoxyphenyl)-1-pyrrolidinyl]propyl]pyrido[2',3':4,5]thieno[3,2-d]pyrimidine-2,4(1H,3 H)-dione, Dihydrochloride], the Ki (α1b (Hamster)) was 70.7 nM, the Ki (α1a (Rat)) was 27.3 nM and the Ki (α1a (Bovine)) was 8 nM. It also gave a Ki (α1d (rat)) of 92.2 nM.

In the case of `COc1ccccc1[C@H]1CCN(CCCCN2C(=O)CCc3ccccc32)C1` [Example 19, (R)-3,4-dihydro-1-[4-[3-(2-methoxyphenyl)-1-pyrrolidinyl]butyl]-2(1H)-quinolinone Monohydrochloride], the Ki (α1b (Hamster)) is reported as 0.93 nM, the Ki (α1a (Rat)) is reported as 0.57 nM and the Ki (α1a (Bovine)) is reported as 0.15 nM. The Ki (α1d (rat)) was 0.23 nM.

Source: patent US6133275A, “3-phenylpyrrolidine alpha-1 adrenergic compounds” (Abbott Laboratories, priority 1998, dated 2000)
